Laboratory results: ChEMBL document CHEMBL3124754, “Delivery of a lactose derivative of endomorphin 1 to the brain via the olfactory epithelial pathway” (Bioorg Med Chem Lett, 2014)

What was measured:
[1] = Drug uptake in Sprague-Dawley rat blood at 2 mg/kg administered via nasal cavity after 10 mins; type: ADME, organism-based; set-up: dose 2 mg/kg; conditions: inhaled or intranasal, read-out: Drug uptake
[2] = Drug uptake in Sprague-Dawley rat brain at 2 mg/kg administered via nasal cavity after 10 mins; type: ADME, organism-based; set-up: dose 2 mg/kg; conditions: inhaled or intranasal, read-out: Drug uptake
[3] = Drug uptake in Sprague-Dawley rat olfactory bulb at 2 mg/kg administered via nasal cavity after 10 mins; type: ADME, organism-based; set-up: dose 2 mg/kg; conditions: inhaled or intranasal, read-out: Drug uptake
Brain [4] = experiment: Drug uptake in rat brain homogenate at 6.5 uM after 30 mins by LC-MS/MS analysis; type: ADME, tissue-based; conditions: in vivo, 0.5 h
Brain [5] = experiment: Drug uptake in rat brain homogenate at 18.2 uM after 30 mins by LC-MS/MS analysis; type: ADME, tissue-based; conditions: in vivo, 0.5 h
[6] = Half life in human plasma by RP-HPLC analysis; type: ADME, cell-free
Plasma = experiment: Drug degradation in human plasma assessed as N-lactose endomorphin1 formation after 2 mins by RP-HPLC analysis; type: ADME, cell-free

Row | Compound | concentration at 10 min [1] | concentration at 10 min [2] | concentration at 10 min [3] | Drug uptake (Brain [4]) | Drug uptake (Brain [5]) | half-life [6] | Stability (Plasma)
1 | NC(=O)[C@H](Cc1ccccc1)NC(=O)[C@H](Cc1c[nH]c2ccccc12)NC(=O)[C@@H]1CCCN1C(=O)[C@H](Cc1ccc(O)cc1)NC(=O)CCC(=O)N[C@@H]1O[C@H](CO)[C@@H](O[C@@H]2O[C@H](CO)[C@H](O)[C@H](O)[C@H]2O)[C@H](O)[C@H]1O | 1.6 nM | 4 nM | 514 nM | 3.4 µM | 18.12 µM | 12.9 min | 
2 | CC(=O)OC[C@H]1O[C@@H](O[C@H]2[C@H](OC(C)=O)[C@@H](OC(C)=O)[C@H](NC(=O)CCC(=O)N[C@@H](Cc3ccc(O)cc3)C(=O)N3CCC[C@H]3C(=O)N[C@@H](Cc3c[nH]c4ccccc34)C(=O)N[C@@H](Cc3ccccc3)C(N)=O)O[C@@H]2COC(C)=O)[C@H](OC(C)=O)[C@@H](OC(C)=O)[C@H]1OC(C)=O |  |  |  |  |  |  | Unstable
3 | NC(=O)[C@H](Cc1ccccc1)NC(=O)[C@H](Cc1c[nH]c2ccccc12)NC(=O)[C@@H]1CCCN1C(=O)[C@@H](N)Cc1ccc(O)cc1 [ENDOMORPHIN-1] |  |  |  |  |  | 5.9 min | 
